# Assay results reported in article PMC12080387, “Integrated thermal proteome and thermal proximity co-aggregation profiling identifies ATP6V1C1 as a novel anti-cancer drug target” (International Journal of Biological Sciences, 2025).
# Target: T1, ATP6V1C1 (Homo sapiens, UniProt P21283)
# T1 construct: human wild-type ATP6V1C1, N-terminal 6xHis tag, modified pET30a, expressed in E. coli BL21 (DE3)
# Assay: ITC with purified recombinant protein; supported by CETSA/ITDRF (half-maximal destabilization […]) and TPP
# Assay type: binding
# T1 sequence (P21283 2-382): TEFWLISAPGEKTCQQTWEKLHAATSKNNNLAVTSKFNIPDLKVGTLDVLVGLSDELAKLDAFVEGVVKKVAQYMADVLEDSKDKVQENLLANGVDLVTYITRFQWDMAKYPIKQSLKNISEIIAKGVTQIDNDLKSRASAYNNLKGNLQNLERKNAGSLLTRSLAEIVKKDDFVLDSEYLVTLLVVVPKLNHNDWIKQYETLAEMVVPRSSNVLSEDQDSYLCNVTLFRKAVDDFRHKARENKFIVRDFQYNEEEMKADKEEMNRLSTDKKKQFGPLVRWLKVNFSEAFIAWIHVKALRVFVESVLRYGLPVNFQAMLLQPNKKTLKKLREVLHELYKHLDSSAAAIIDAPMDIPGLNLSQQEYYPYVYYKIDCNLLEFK
smiles,measurement,value
"Cc1c([C@H](C)[C@@H]2NC[C@@H](C)C[C@H]2O)ccc2c1C[C@H]1[C@H]2CC=C2C[C@@H](O)CC[C@@]21C [VAM, veratramine]",Kd,1170 nM
